Here are results for three compounds from patent publication US6528492B1, “SINGLE-STEP PROCESS FOR PREPARING 7, 16-DEOXY-2-AZA-10-0-CLADINOSIL-12-0-DESOSAMINIL-4, 5-DIHYDROXY-6-ETHYL-3,5,9,11,13,15-HEXAMETHYLBICYCLE (11.2.1) HEXADECA-1(2)-EN-ONA AND OBTAINING A NEW FORM OF 9-DEOXO-9A-METHYL-9A-AZA-9A-HOMOERYTHROMYCIN A” (Instituto de Investigacion en Quimica Aplicada S.C., priority 2001, dated 2003).

Series [1] is described as follows: Moisture uptake on exposure to room conditions. The series is classed as physicochemical. Particulars: exposed to room conditions, relative humidity average of 45%, ten days. From the text:
In addition to its novel features, the physical form obtained has physical characteristics that make it useful in preparing pharmaceutical preparations, with significant advantages over the forms existing to date. […] In contrast, the anhydrous crystalline form obtained here, when exposed to room conditions, at an relative humidity average of 45%, for ten days, increases its moisture content by only 0.55%, while a reference sample of dihydrated azithromycin increased its moisture content by 1% in the same time.

The nature of series [2]: Dissolution profile of 500 mg azithromycin tablets. Particulars: total weight one gram, solvents and procedure similar to capsules in U.S. Pharmacopoeia 2000, page 186. Format: physicochemical. On the procedure: In order to test the performance of anhydrous crystalline azithromycin in producing pharmaceutical preparations, 500 mg azithromycin tablets were made with total weight of one gram. The dissolution profile of these tablets was determined, and compared with the dissolution profile of tablets made with the same preparation using dihydrated azithromycin. The used solvents, and the procedure followed, were similar to those indicated for capsules in U.S. Pharmacopoeia 2000, page 186. […] This property gives the anhydrous crystalline form reported herein significant practical advantages over the dihydrated forms, given that increased solubility of the pharmaceutical preparation generally implies greater bioavailabilty of the drug and in consequence increases its therapeutic effectiveness.

For series [3] the following is noted: as indicated by patent PCT/US87/0612; cited from earlier work.

Turning to `CCC1OC(=O)C(C)C(OC2CC(C)(OC)C(O)C(C)O2)C(C)C(OC2OC(C)CC(N(C)C)C2O)C(C)(O)CC(C)CN(C)C(C)C(O)C1(C)O` (stereo not shown) [anhydrous crystalline form, 9-deoxo-9a-methyl-9a-aza-9a-homoerythromycin A], the “increase of moisture content” value in series [1] was found to be 0.55%. Further, the “dissolution values of tablets compared with tablets made with dihydrated azithromycin” value in series [2] is “significantly higher”.

With `CCC1OC(=O)C(C)C(OC2CC(C)(OC)C(O)C(C)O2)C(C)C(OC2OC(C)CC(N(C)C)C2O)C(C)(O)CC(C)CN(C)C(C)C(O)C1(C)O` (stereo not shown) [dihydrated azithromycin, 9-deoxo-9a-methyl-9a-aza-9a-homoerythromycin A], the “increase of moisture content” value in series [1] turned out to be 1%.

With `CCC1OC(=O)C(C)C(OC2CC(C)(OC)C(O)C(C)O2)C(C)C(OC2OC(C)CC(N(C)C)C2O)C(C)(O)CC(C)CN(C)C(C)C(O)C1(C)O` (stereo not shown) [forms reported by Kobrehel et al., 9-deoxo-9a-methyl-9a-aza-9a-homoerythromycin A], the hygroscopicity entry in series [3] was “highly hygroscopes”.
